The structures appear in SMILES notation. Active and inactive are the calls of the source. The calls are words filed in the database; no cut-off is given here.

The subject of series [1] is U-118-MG. The experiment in a line: Antitumor activity against human U118MG cells xenografted in Bar b/c nude mouse assessed as reduction in tumor weight at 50 mg/kg, ip adminstered twice weekly for 3 weeks and measured every 3 days for 20 days by caliper method. It counts as functional, organism-based. (In general: A xenograft is tissue or cells of one species grown in another, often human tumour cells in immunodeficient mice.)

Series [2] concerns Mus musculus. Put plainly: Increase in E-cadherin gene expression in tumor of Bar b/c nude mouse xenografted with human U118MG cells at 50 mg/kg, ip adminstered every 3 days for 3 weeks. It counts as functional, organism-based.
In series [3] the test system is Mus musculus. Put plainly: Increase in E-cadherin protein expression in tumor of Bar b/c nude mouse xenografted with human U118MG cells at 50 mg/kg, ip adminstered twice weekly for 3 weeks and measured after 20 days by immunohistochemical analysis. It counts as functional, organism-based.
The test system of series [4] is Mus musculus. The experiment in a line: Increase in bax protein expression in tumor of siPKM2-treated Bar b/c nude mouse xenografted with human U118MG cells at 50 mg/kg, ip adminstered twice weekly for 3 weeks and measured after 20 days by immunohistochemical analysis. It counts as functional, organism-based.
The test system of series [5] is Mus musculus. The experiment in a line: Increase in bax protein expression in tumor of Bar b/c nude mouse xenografted with human U118MG cells at 50 mg/kg, ip adminstered twice weekly for 3 weeks and measured after 20 days by immunohistochemical analysis. It counts as functional, organism-based.
In series [6] the test system is Mus musculus. The experiment in a line: Reduction in vimentin protein expression in tumor of Bar b/c nude mouse xenografted with human U118MG cells at 50 mg/kg, ip adminstered twice weekly for 3 weeks and measured after 20 days by immunohistochemical analysis. It counts as functional, organism-based.
Series [7] relates to Mus musculus. The experiment in a line: Reduction in phosphorylated STAT3 expression in tumor of siPKM2-treated Bar b/c nude mouse xenografted with human U118MG cells at 50 mg/kg, ip adminstered twice weekly for 3 weeks and measured after 20 days by immunohistochemical analysis. It counts as functional, organism-based.
In series [8] the test system is Mus musculus. The experiment in a line: Reduction in phosphorylated STAT3 expression in tumor of Bar b/c nude mouse xenografted with human U118MG cells at 50 mg/kg, ip adminstered twice weekly for 3 weeks and measured after 20 days by immunohistochemical analysis. It counts as functional, organism-based.
Series [9] relates to Mus musculus. The experiment in a line: Reduction in STAT3 gene expression in tumor of Bar b/c nude mouse xenografted with human U118MG cells at 50 mg/kg, ip adminstered every 3 days for 3 weeks. It counts as functional, organism-based.
Series [10] has as its system Mus musculus. The experiment in a line: Reduction in Bcl2 protein expression in tumor of siPKM2-treated Bar b/c nude mouse xenografted with human U118MG cells at 50 mg/kg, ip adminstered twice weekly for 3 weeks and measured after 20 days by immunohistochemical analysis. It counts as functional, organism-based.
In series [11] the test system is Mus musculus. Put plainly: Reduction in Bcl2 protein expression in tumor of Bar b/c nude mouse xenografted with human U118MG cells at 50 mg/kg, ip adminstered twice weekly for 3 weeks and measured after 20 days by immunohistochemical analysis. It counts as functional, organism-based.
The test system of series [12] is Mus musculus. The experiment in a line: Reduction in vimentin protein expression in tumor of Bar b/c nude mouse xenografted with human U118MG cells at 50 mg/kg, ip adminstered every 3 days for 3 weeks and measured after 20 days by Western blot analysis. It counts as functional, organism-based.
The subject of series [13] is Mus musculus. The experiment in a line: Reduction in STAT3 protein expression in tumor of Bar b/c nude mouse xenografted with human U118MG cells at 50 mg/kg, ip adminstered every 3 days for 3 weeks and measured after 20 days by Western blot analysis. It counts as functional, organism-based.
The test system of series [14] is Mus musculus. Put plainly: Reduction in Bcl2 protein expression in tumor of Bar b/c nude mouse xenografted with human U118MG cells at 50 mg/kg, ip adminstered every 3 days for 3 weeks and measured after 20 days by Western blot analysis. It counts as functional, organism-based.
Series [15] concerns U-118-MG. Put plainly: Antitumor activity against human U118MG cells xenografted in siPKM2-treated Bar b/c nude mouse assessed as tumor growth at 50 mg/kg, ip adminstered twice weekly for 3 weeks measured every 3 days for 20 days by caliper method. It counts as functional, organism-based.
The subject of series [16] is Mus musculus. The experiment in a line: Increase in Bax protein expression in tumor of Bar b/c nude mouse xenografted with human U118MG cells at 50 mg/kg, ip adminstered every 3 days for 3 weeks and measured after 20 days by Western blot analysis. It counts as functional, organism-based.
Series [17] has as its system Mus musculus. The experiment in a line: Reduction in Bcl2 gene expression in tumor of Bar b/c nude mouse xenografted with human U118MG cells at 50 mg/kg, ip adminstered every 3 days for 3 weeks. It counts as functional, organism-based.
Series [18] in a line: Toxicity in Bar b/c nude mouse xenografted with human U118MG cells assessed as effect on body weight at 50 mg/kg, ip adminstered twice weekly for 3 weeks and measured every 3 days for 20 days. It counts as organism-based. To be noted: in vivo, 480 h.
For series [19], the system named is U-118-MG. The experiment in a line: Antitumor activity against human U118MG cells xenografted in Bar b/c nude mouse assessed as reduction in tumor growth at 50 mg/kg, ip adminstered twice weekly for 3 weeks and measured every 3 days for 20 days by caliper method. It counts as functional, organism-based.
The subject of series [20] is Mus musculus. The experiment in a line: Reduction in vimentin protein expression in tumor of siPKM2-treated Bar b/c nude mouse xenografted with human U118MG cells at 50 mg/kg, ip adminstered twice weekly for 3 weeks and measured after 20 days by immunohistochemical analysis. It counts as functional, organism-based.
The test system of series [21] is Mus musculus. The experiment in a line: Increase in E-cadherin protein expression in tumor of siPKM2-treated Bar b/c nude mouse xenografted with human U118MG cells at 50 mg/kg, ip adminstered twice weekly for 3 weeks and measured after 20 days by immunohistochemical analysis. It counts as functional, organism-based.
The test system of series [22] is Mus musculus. The experiment in a line: Increase in E-cadherin protein expression in tumor of Bar b/c nude mouse xenografted with human U118MG cells at 50 mg/kg, ip adminstered every 3 days for 3 weeks and measured after 20 days by Western blot analysis. It counts as functional, organism-based.

Take `CN(C)C[C@@H]1C(=O)O[C@H]2[C@H]1CC/C(C(=O)OCCOCCOC(=O)/C1=C/CC[C@@]3(C)O[C@H]3[C@H]3OC(=O)[C@@H](CN(C)C)[C@@H]3CC1)=C\CC[C@@]1(C)O[C@@H]21.O=C(O)/C=C/C(=O)O.O=C(O)/C=C/C(=O)O`: the outcome in series [1], in [2], in series [3], in series [5], in series [16] and in series [19] was Active. Further, in [22], the outcome was Active. For the same compound, the result in [4], in series [15] and in series [21] was inactive. Also, the inhibition result in [6], in series [8], in series [9], in [11], in series [12] and in series [13] was “Active” throughout. The inhibition entry in series [14] and in series [17] was “Active” in each case. The inhibition result in [7], in series [10] and in series [20] was “inactive” in each case. In addition, in series [18], the Activity entry is “Non-Toxic”.

Values taken from ChEMBL document CHEMBL4376892, “Identification of Parthenolide Dimers as Activators of Pyruvate Kinase M2 in Xenografts of Glioblastoma Multiforme in Vivo” (J Med Chem, 2020).
